Measurements from ChEMBL document CHEMBL1909046, “DrugMatrix in vitro pharmacology data”.

Tests used:
Cytochrome P450 2D6 = Cytochrome P450 2D6 (Homo sapiens, UniProt P10635); conditions: bti-tn-5b1-4; further: in other assays of this panel Not Active means under 50% inhibition at 10 µM
[1] = target: T1, Nitric oxide synthase, inducible (Mus musculus, UniProt P29477); parameters: species or system Escherichia coli;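 further: inhibition of iNOS enzyme activity measured with L-arginine as substrate; in other assays of this panel Not Active means under 50% inhibition at 10 µM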
T1 sequence (P29477 whole entry): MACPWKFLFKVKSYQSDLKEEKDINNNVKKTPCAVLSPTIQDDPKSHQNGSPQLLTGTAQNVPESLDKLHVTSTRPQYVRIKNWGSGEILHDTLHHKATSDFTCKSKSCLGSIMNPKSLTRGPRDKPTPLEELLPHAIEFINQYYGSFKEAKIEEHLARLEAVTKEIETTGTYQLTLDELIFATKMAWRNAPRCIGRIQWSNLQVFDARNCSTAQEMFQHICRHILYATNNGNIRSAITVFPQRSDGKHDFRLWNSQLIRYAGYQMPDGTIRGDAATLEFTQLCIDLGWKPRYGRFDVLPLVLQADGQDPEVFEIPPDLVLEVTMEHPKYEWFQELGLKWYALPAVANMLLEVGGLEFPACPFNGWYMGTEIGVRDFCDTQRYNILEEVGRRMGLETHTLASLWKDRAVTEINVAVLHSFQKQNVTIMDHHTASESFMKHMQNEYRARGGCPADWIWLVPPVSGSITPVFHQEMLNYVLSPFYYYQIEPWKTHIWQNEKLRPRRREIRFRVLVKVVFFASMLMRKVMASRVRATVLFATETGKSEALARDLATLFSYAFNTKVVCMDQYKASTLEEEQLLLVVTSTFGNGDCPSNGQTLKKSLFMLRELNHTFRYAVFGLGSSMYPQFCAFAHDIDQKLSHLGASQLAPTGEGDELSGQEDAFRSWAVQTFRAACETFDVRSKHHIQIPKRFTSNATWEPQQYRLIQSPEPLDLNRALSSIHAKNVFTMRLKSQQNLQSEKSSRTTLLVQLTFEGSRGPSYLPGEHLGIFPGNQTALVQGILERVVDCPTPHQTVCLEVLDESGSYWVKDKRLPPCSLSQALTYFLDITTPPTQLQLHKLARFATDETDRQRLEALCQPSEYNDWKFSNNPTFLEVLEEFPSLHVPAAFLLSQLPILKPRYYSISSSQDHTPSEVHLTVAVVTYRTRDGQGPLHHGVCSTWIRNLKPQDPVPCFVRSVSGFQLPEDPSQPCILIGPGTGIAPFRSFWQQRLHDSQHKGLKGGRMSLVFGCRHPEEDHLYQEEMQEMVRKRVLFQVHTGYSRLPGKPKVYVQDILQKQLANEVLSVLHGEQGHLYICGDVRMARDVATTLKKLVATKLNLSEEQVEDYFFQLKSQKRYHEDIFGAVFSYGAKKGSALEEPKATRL

[2] = DRUGMATRIX: Phorbol Ester radioligand binding (ligand: [3H] PDBu); format: cell membranes, Mus musculus, ICR, Brain, Membrane; conditions: Not Active = under 50% inhibition at 10 µM
B2 bradykinin receptor = target: T2, B2 bradykinin receptor (Homo sapiens, UniProt P30411); format: cell membranes, Membrane; conditions: chem-1; further: in other assays of this panel Not Active means under 50% inhibition at 10 µM
T2 sequence (P30411 whole entry): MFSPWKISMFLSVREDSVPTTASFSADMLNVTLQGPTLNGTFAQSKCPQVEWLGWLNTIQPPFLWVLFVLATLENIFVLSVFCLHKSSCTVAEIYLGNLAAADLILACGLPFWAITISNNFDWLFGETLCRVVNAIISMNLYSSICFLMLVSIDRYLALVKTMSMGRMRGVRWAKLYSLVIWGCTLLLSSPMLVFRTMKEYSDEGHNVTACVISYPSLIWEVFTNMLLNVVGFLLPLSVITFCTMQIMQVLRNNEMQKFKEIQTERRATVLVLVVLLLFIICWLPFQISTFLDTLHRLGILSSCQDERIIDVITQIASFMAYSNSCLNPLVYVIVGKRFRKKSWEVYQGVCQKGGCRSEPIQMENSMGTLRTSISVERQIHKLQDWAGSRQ

[3] = target: 5-hydroxytryptamine receptor 1B (Rattus norvegicus, UniProt P28564); format: cell membranes, Wistar, Cerebral cortex, Membrane; further: in other assays of this panel Not Active means under 50% inhibition at 10 µM
[4] = DRUGMATRIX: Glutamate, NMDA, Agonism radioligand binding (ligand: [3H] CGP-39653); format: cell membranes, Rattus norvegicus, Wistar, Cerebral cortex, Membrane; conditions: Not Active = under 50% inhibition at 10 µM
Substance-K receptor = target: T3, Substance-K receptor (Homo sapiens, UniProt P21452); format: cell membranes, CHO, Membrane; conditions: cho; further: in other assays of this panel Not Active means under 50% inhibition at 10 µM
T3 sequence (P21452 whole entry): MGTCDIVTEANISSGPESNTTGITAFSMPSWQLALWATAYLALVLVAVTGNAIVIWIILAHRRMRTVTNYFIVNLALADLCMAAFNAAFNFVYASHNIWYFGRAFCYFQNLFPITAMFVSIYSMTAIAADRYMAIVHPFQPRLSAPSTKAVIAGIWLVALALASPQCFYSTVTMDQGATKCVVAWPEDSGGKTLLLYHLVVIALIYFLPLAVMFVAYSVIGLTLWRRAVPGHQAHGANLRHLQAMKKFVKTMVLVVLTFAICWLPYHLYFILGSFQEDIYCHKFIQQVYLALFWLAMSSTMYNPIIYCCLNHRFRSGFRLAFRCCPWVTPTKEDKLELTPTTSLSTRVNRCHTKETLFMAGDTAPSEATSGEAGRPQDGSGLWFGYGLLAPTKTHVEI

Chain of Cytochrome P450 2D6 (P10635 whole entry): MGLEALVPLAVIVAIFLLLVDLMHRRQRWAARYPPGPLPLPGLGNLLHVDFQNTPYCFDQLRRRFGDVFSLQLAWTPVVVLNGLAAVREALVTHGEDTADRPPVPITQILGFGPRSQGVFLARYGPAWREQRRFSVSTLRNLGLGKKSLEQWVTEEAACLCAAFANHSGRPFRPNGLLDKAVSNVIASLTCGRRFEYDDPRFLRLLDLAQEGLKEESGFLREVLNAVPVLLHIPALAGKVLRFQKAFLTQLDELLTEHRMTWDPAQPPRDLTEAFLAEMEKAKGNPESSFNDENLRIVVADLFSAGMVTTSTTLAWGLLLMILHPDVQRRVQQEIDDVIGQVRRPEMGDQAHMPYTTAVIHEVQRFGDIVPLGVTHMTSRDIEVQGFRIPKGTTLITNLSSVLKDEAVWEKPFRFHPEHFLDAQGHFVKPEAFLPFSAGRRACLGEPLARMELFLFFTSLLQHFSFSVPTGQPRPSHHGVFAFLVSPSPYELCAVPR
Chain of 5-hydroxytryptamine receptor 1B (P28564 whole entry): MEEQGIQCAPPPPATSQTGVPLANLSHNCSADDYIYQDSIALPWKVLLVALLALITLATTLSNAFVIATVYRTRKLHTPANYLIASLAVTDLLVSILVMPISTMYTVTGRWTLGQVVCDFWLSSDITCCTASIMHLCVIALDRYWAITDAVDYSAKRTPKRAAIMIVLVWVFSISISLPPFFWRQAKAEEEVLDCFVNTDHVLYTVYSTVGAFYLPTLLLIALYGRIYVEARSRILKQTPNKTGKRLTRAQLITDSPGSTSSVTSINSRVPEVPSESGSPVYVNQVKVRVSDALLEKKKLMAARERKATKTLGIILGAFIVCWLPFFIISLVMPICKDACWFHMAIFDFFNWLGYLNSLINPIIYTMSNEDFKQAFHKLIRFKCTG

CN1CCC(=C2c3ccccc3CC(=O)c3sccc32)CC1 [KETOTIFEN]
Not Active: IC50 (Cytochrome P450 2D6) | Ki (Cytochrome P450 2D6) | IC50 [1] | IC50 [2] | Ki [2] | IC50 (B2 bradykinin receptor) | IC50 [3] | IC50 [4] | Ki [4] | IC50 (Substance-K receptor)

NC(=O)N1c2ccccc2CC(=O)c2ccccc21 [OXCARBAZEPINE]
Not Active: IC50 (Cytochrome P450 2D6) | Ki (Cytochrome P450 2D6) | IC50 [1] | IC50 [2] | Ki [2] | IC50 (B2 bradykinin receptor) | IC50 [3] | IC50 [4] | Ki [4] | IC50 (Substance-K receptor)
